According to US20050272068A1, “UCH-L1 expression and cancer therapy” (The Brigham and Women's Hospital, Inc., priority 2004, published 2005):
Entries after “also recorded” stand apart in the source; their conditions may differ.

How the values were obtained:
α-synuclein [1] = assay: alpha-synuclein degradation assay in transfected COS-7 cells (quantitative Western blotting); type: cell-based; conditions: 35 μM lactacystin 24 hours, normalized against actin, defines the 100% reference
Description: Plasmids: C220S cDNA was generated by PCR site-specific mutagenesis. For the PCR, the 5′ primer is uchforw ([…]) (SEQ ID NO: 5), and 3′ primer is uchc220s ([…] TGCTGAGAGC) (SEQ ID NO: 6). Wt UCH-L1 served as the template. The PCR fragment was inserted into pcDNA vector. For S18YC220S mutant, S18Y UCH-L1 served as the template in PCR. For the FLAG tagged UCH-L1, the 5′ primer is FLAGuchforw ([…] GCAGCTCAAGCCGATGGAG) (SEQ ID NO: 7), and the 3′ primer is uchrev ([…]) (SEQ ID NO: 8). Wt UCH-L1 or C220S served as the template. PCR fragment was purified and inserted into pcDNA vector. For the FLAG tagged UCH-L3, the 5′ primer is L3HindIII ([…] CTG) (SEQ ID NO: 9), the 3′primer is L3XhoISAA (ATCCTCGAGCTATGCT GCAGAAAGAGCAATCGCA) (SEQ ID NO: 10). For the UCH-L3 CKAA variant, the 5′ primer is L3 HindIII and the 3′ primer is L3XhoICKAA (ATCCTCGAGCTA […]) (SEQ ID NO: 11). α-synuclein degradation assay: Liphitamine 2000 was used to transfect COS-7 cells according to the Invitrogen protocol. Transfected cells were cultured at 37° C. for 48 hours before being treated with 35 μM lactacystin or DMSO. After 24 hours of incubation, the cells were lysed with Tris buffer (50 mM Tris, 2% SDS, 0.1% NP-40), and subjected to SDS-PAGE, followed by quantitative Western blotting. […]

H1299 = assay: Cell growth by counting living cells as a function of time, H1299; type: cell-based
Description: (§1) To test the effect of farnesyl transferase inhibitor in a cell culture model, H1299 and H358 (FIG. 5B) were treated with 100 nM FTI-277 or DMSO. As a comparison, H1299 was also treated with 5 μM LDN-57414 (UCH-L1 inhibitor), which we have previously shown to increase H1299 cell proliferation (Liu et al 2003). Cell growth was quantified by counting the number of living cells as a function of time. […] The initial acceleration of cell growth in H1299, thus, may be the consequence of inhibition on UCH-L1 farnesylation. This possibility may explain the minimal clinical activity of farnesyl transferase inhibitor in treating patients with NSCLC.

α-synuclein [2] = assay: Amount of alpha-synuclein in infected SH-SY5Y cells by Western blotting; type: cell-based; conditions: SH-SY5Y cells infected with alpha-synuclein-expressing adenovirus, normalized against actin
Description: (§2) Viral Infection: Viral infection and MTT assay in SH—SY5Y cells: The viruses were amplified and purified according to the published procedure. SH—SY5Y cells were grown on 100 mm petri-dishes and induced with 100 nM RA for 3-5 days before the virus infection with M.I.O at 75. Viruses were diluted with DPBS to desired M.I.O. After four hours of incubation, 10 ml growth medium was added. On the second day, cells were splitted into 96-well plates and treated with compounds for next 48 hours. The growth medium in each well was replaced with growth medium with 5 ug/ml MTT. Medium was removed after three hours incubation, and 200 ul isopropyl (0.04N HCl) was added into each well. The signal was read at 570 nm.
(§3) Western Blotting: Following transfer of SDS gels onto NC membrane, all membranes were blocked with 5% non-fat milk in TBST (50 mM Tris-HCl pH7.4, 150 mM NaCl, 0.1% Tween 20), and incubated with primary antibody overnight with 1% BSA in TBST, washed three times with TBST, and incubated with horseradish peroxidase-conjugated secondary antibody for 1 hour (Promega). Bound antibodies were detected using enhanced chemiluminascence (NEM).
Since α-synuclein neurotoxicity is dose-dependent, it follows that accumulation of α-synuclein, caused by UCH-L1 farnesylation, should promote its toxicity. […] (F) Cell viability was assessed by the amount of metabolic activity using MTT assay. […]

UCH-L1 [3] = assay: Pulse-chase experiment, UCH-L1 turnover in SH-SY5Y cells; type: cell-based; conditions: pulse-chase experiment not shown
Description: Treatment with FTI-277 reduced the total amount of UCH-L1 in SH—SY5Y cells and increased its rate of turnover (pulse-chase experiment not shown), in addition to reducing the amount of membrane-associated protein.

H358 = assay: Cell growth by counting living cells as a function of time, H358; type: cell-based; conditions: 100 nM FTI-277, H358 does not express UCH-L1, vs DMSO control
Description: as §1

SH-SY5Y cells = assay: alpha-synuclein toxicity in SH-SY5Y cells infected with alpha-synuclein-expressing adenovirus (Trypan blue viable cell counting, MTT assay); type: cell-based; conditions: SH-SY5Y cells overexpressing alpha-synuclein via adenoviral vector, compounds for 48 hours, vs DMSO
Description: as §2
Viable cell counting: At stated time poins, SH—SY5Y cells were trypsinized with 100 ul trypsin-EDTA for 1 minute and neutralized with 400 ul growth medium. Cell suspension was made up by mixing 0.2 ml of cells in growth medium, 0.3 ml of HBSS and 0.5 ml of 0.4% Trypan Blue solution. Viable cell numbers were counted by standard cell counting chamber.
Since α-synuclein neurotoxicity is dose-dependent, it follows that accumulation of α-synuclein, caused by UCH-L1 farnesylation, should promote its toxicity. […] These cells express high endogenous levels of UCH-L1. […] The unit of y-axis is 10^5/ml. (F) Cell viability was assessed by the amount of metabolic activity using MTT assay. […]

UCH-L1 [4] = assay: UCH-L1 species in SH-SY5Y cells by 2D electrophoresis and Western blotting (membrane, cytosolic, total); type: cell-based
Description: Membrane fractionation: Cells were harvested by scraping and washed with PBS. Cell pellet was suspended in lysis buffer (50 mM Tris-HCl, 1 mM EDTA) supplemented with protease inhibitor cocktail (Sigma) and homogenized by passing through 26G needles 10 times. Suspension was clarified by spinning at 600 g for 5 minutes. Clarified suspension was ultracentrifuged at 100,000 g for 2 hours and separated into membrane and cytosol. Membrane fraction was washed with washing buffer (50 mM Tris-HCl, 1 mM EDTA 1M NaCl), and pelleted each time with bench-top centrifuge.
2D electrophoresis: For the isolation of total cellular protein, cultured SH—SY5Y cells maintained as described above were rinsed with ice-cold PBS. Cells were lysed in 1 ml dSDS buffer (50 mM Tris-HCl, pH 8.0 0.1% SDS) supplemented with protease inhibitor cocktail. Lysates were boiled for 3 min, and were treated with Dnase and Rnase as described. Lysates were precipitated with ice-cold acetone for at least 2 hours, and pellets were resuspended in 2D sample buffer (8M urea, 0.5% CHAPS, 0.2% DTT, 0.5% IPG buffer, 0.002% bromophenol blue). 2D electrophoresis was carried out according to manufacture's protocol (Amersham Life Science). 7 cm pH 4-7 strips were used. For SH—SY5Y membrane fraction, culture SH—SY5Y cells were rinsed with cold PBS and harvested with lysis buffer (50 mM Tris-HCl, pH 8.0, 1 mM ZnAc2, 250 mM sucrose). Lysate was passed through 25 G needles for several times and spun at 1000 g for 5 min. Supernatant was centrifuged at 200,000 g for 2 hours. Pellet was extensively washed with lysis buffer and extracted with cold acetone. Pellet was resuspended in 2D sample buffer.
as §3, with “(NEM). […]” for “(NEM).”

[5] = biological target: the molecule itself; assay: self-oligomerisation of purified protein, method not described
[6] = compared to cells treated with DMSO

Q: `CC(=O)N[C@@H](CSC(=O)[C@]1([C@@H](O)C(C)C)NC(=O)[C@H](C)[C@@H]1O)C(=O)O` [lactacysteine] was tested. Which accumulation of alpha-synuclein (α-synuclein [1]) did it give?
A: 100%

Q: `COC(=O)[C@H](CCSC)NC(=O)c1ccc(NC[C@@H](N)CS)cc1-c1ccccc1` [FTI-277] was tested. Which “initial cell growth in H1299” value (H1299; 100 nM FTI-277, vs DMSO control) did it give?
A: promoted initial cell growth

Q: And the “H1299 cell growth after 24 hours of compound treatment” value (H1299; 100 nM FTI-277 or 5 μM LDN-57414)?
A: began to show toxicity

Q: What about the amount of alpha-synuclein (α-synuclein [2]) of the same molecule?
A: reduced; also recorded: reducing

Q: And the “UCH-L1 rate of turnover” value (UCH-L1 [3])?
A: increased

Q: What about the “initial cell growth in H358” value (H358) of the same molecule?
A: induced initial toxicity

Q: What about the “alpha-synuclein toxicity (loss of cells / viability)” value (SH-SY5Y cells) of the same molecule?
A: significantly decreased loss of cells; also recorded: rescued; also recorded: protects

Q: What about the “total amount of UCH-L1” value (UCH-L1 [4]) of the same molecule?
A: reduced

Q: And the “amount of cytosolic UCH-L1” value (UCH-L1 [4]; [6])?
A: without affecting

Q: What about the “amount of membrane bound UCH-L1” value (UCH-L1 [4]; [6]) of the same molecule?
A: significant decrease; also recorded: decreased; also recorded: reducing

B1: UCH-L1 C220S mutant (S18 background), expressed in E. coli and purified (enzyme, UniProt P09936 1-223, looked up)
chain: MQLKPMEINPEMLNKVLSRLGVAGQWRFVDVLGLEEESLGSVPAPACALLLLFPLTAQHENFRKKQIEELKGQEVSPKVYFMKQTIGNSCGTIGLIHAVANNQDKLGFEDGSVLKQFLSETEKMSPEDRAKCFEKNEAIQAAHDAVAQEGQCRVDDKVNFHFILFNNVDGHLYELDGRMPFPVNHGASSEDTLLKDAAKVCREFTEREQGEVRFSAVALSKAA
notes: also called C220S variant
Q: Does B1 bind [5]?
A: binds
